The text below walks through data of US20240425523A1, “Compounds for the Degradation of EGFR Kinase” (Beigene Switzerland GMBH, priority 2023, published 2024).

In general, IC50 refers to the concentration that gives 50% inhibition. What is called DC50 is the midpoint of the concentration-degradation curve. A high value points to degradation only at high concentration. As usually defined, the Dmax is the greatest extent of degradation seen. A lower Dmax goes with shallow degradation.

Common to all, as to type: cell-based
The target of test [1] is T1, p-EGFR L858R (BaF3-L858R cells) (Homo sapiens, UniProt P00533, L858R).
T1 construct: host or cells: BaF3
The test is described as follows: Cell p-EGFR inhibition assay, HTRF, BaF3-L858R cells. The settings on record: 16 h treatment; for Imax (%): maximum percentage of pEGFR inhibition; for IC50: pEGFR inhibition. The procedure:
(§1) BaF3-L858R (abbv. L858R) cell were purchased from Kangyuan Bochuang Biotechnology (Beijing) Co., Ltd.
(§2) H1975-#23 and BaF3-L858R cells are treated with compounds diluted in 0.1% DMSO cell culture medium on day 2, incubate for 16 h, 37° C., 5% CO2. the final concentration of compounds in all assay is start with 10 uM, 5-fold dilution, total 8 doses were included.
(§3) After 16 h treatment, for H1975-#23 cells, add 50 ul HTRF 1× lysis buffer to each well; for BaF3-L858R cells, add 20 μl 4× lysis buffer to each well; seal the plate and incubate 1 hour at room temperature on a plate shaker; Once the cells are lysed, 16 μL of cell lysate are transferred to a PE 384-well HTRF detection plate; 4 μL of pre-mixed HTRF antibodies are added to each well; Cover the plate with a plate sealer, spin 1000 rpm for 1 min, Incubate overnight at room temperature; Read on BMG PheraStar with HTRF protocol (337 nm-665 nm-620 nm).
(§4) High control=Cell group with added DMSO and without compound, indicating microplate readings without p-EGFR inhibited.
(§5) Imax is the maximum percentage of inhibition.
(§6) The IC50 value of a compound can be obtained by fitting the following equation.
(§7) Wherein, X and Y are known values, and IC50, Hillslope, Top and Bottom are the parameters obtained by fitting with software. […] The experimental data were fitted by calculating and analyzing with Dotmatics data analysis software.
A general note: Time-resolved FRET reads energy transfer from a long-lived donor to a nearby acceptor.

In test [2] the target is p-EGFR Del19/C797S (H1975-clone #23 cells) (Homo sapiens, UniProt P00533). The test is described as follows: Cell p-EGFR inhibition assay, HTRF, H1975-clone#23 (DEL19/C797S) cells. Particulars: 16 h treatment; for Imax (%): maximum percentage of pEGFR inhibition; for IC50: pEGFR inhibition. How it is done: The EGFR over-expressed cells then underwent knockout, in which the EGFR targeting sgRNA was designed to only target the endogenous EGFR copies and preserve the exogenous EGFR copies. Followed by the knockout, the edited H1975 cells were seeded in 96 well plates at the concentration of 1 cell/well, cultured for about 2 weeks to allow single clones formation. The formed clones were screened by DNA sequencing and whole exon sequencing analysis for the desired edition.
as §2, §3, §4, §5, §6, §7

Test [3] addresses T2, EGFR L858R (BaF3-L858R cells) (Homo sapiens, UniProt P00533, L858R).
T2 construct: host or cells: BaF3
The test is described as follows: Cell degradation of EGFR, HTRF assay, BaF3-L858R cells. The settings on record: 16 h treatment; for DC50: EGFR degradation; for Dmax: maximum percentage of degradation. The procedure:
as §1
(§8) H1975-#8 and BaF3-L858R cells are treated with compounds diluted in 0.1% DMSO cell culture medium on day 2, incubate for 16 h, 37° C., 5% CO2. the final concentration of compounds in all assay is start with 10 uM, 5-fold dilution, total 8 doses were included.
(§9) After 16 h treatment, for H1975-#8 cells, add 100 ul HTRF 1× lysis buffer to each well; for BaF3-L858R cells, add 20 μl 4× lysis buffer to each well; seal the plate and incubate 1 hour at room temperature on a plate shaker; Once the cells are lysed, 16 μL of cell lysate are transferred to a PE 384-well HTRF detection plate; 4 μL of pre-mixed HTRF antibodies are added to each well; Cover the plate with a plate sealer, spin 1000 rpm for 1 min, Incubate overnight at room temperature; Read on BMG PheraStar with HTRF protocol (337 nm-665 nm-620 nm).
(§10) High control=Cell group with added DMSO and without compound, indicating microplate readings without EGFR degradation;
(§11) Dmax is the maximum percentage of inhibition (degradation).
(§12) The IC50 (DC50) value of a compound can be obtained by fitting the following equation
(§13) Y=Bottom+(TOP−Bottom)/(1+((IC50/X)^hillslope))
as §7

Test [4] has as its target T3, EGFR-L858R/C797S (H1975-clone #8 cells) (Homo sapiens, UniProt P00533, C797S/L858R).
T3 construct: expressed in transfected cells; host or cells: H1975 (endogenous EGFR knocked out, clone #8)
As to the kind of experiment: Cell degradation of EGFR, HTRF assay, H1975-clone#8 (L858R/C797S) cells. The settings on record: 16 h treatment; for DC50: EGFR degradation; for Dmax: maximum percentage of degradation. The procedure:
The EGFR over-expressed cells then underwent knockout, in which the EGFR targeting sgRNA was designed to only target the endogenous EGFR copies and preserve the exogenous EGFR copies. Followed by the knockout, the edited H1975 cells were seeded in 96 well plates at the concentration of […], cultured for about 2 weeks to allow single clones formation. The formed clones were screened by DNA sequencing and whole exon sequencing analysis for the desired edition.
as §8, §9, §10, §11, §12, §13, §7

In the case of `Cc1nn(C)c2c1-c1cc(cc(Cl)n1)C(=O)/N=C1\Nc3ccc(N4CCN(C5CCN(c6cc(F)c([C@H]7CCC(=O)NC7=O)c(F)c6)CC5)CC4)cc3N1C[C@@H]1CC[C@H](CO2)C1` [Example 179, (R)-3-(4-(4-(4-((7^1R,7^3S,E)-2^6-chloro-1^1,1^3-dimethyl-3-oxo-5^2,5^3-dihydro-1^1H,5^1H-9-oxa-4-aza-5(2,1)-benzo[d]imidazola-2(2,4)-pyridina-1(4,5)-pyrazola-7(1,3)-cyclopentanacyclononaphane-5^6-yl)piperazin-1-yl)piperidin-1-yl)-2,6-difluorophenyl)piperidine-2,6-dione], the “Imax (%)” value in test [1] was found to be 99.14%; in test [2], 100.7%. Further, the values for the IC50 in test [1] and in test [2] were 14.4 nM and 2.85 nM, respectively. In addition, the 50% degradation concentration (DC50) came out at 5.38 nM in test [3] and 10.6 nM in test [4]. Moreover, the Dmax came to 90.8% in test [3] and 89.6% in test [4].

Regarding `COC[C@@H]1CN(c2cc3c(cc2C)N/C2=N\C(=O)c4cc(C)nc(c4)-c4c(C)nn(C)c4OC[C@H]4CC[C@H](C4)CN23)CCN1C1CCN(c2cc(F)c([C@H]3CCC(=O)NC3=O)c(F)c2)CC1` [Example 173, (R)-3-(2,6-difluoro-4-(4-((S)-2-(methoxymethyl)-4-((7^1R,7^3S,E)-1^1,1^3,2^6,5^5-tetramethyl-3-oxo-5^2,5^3-dihydro-1^1H,5^1H-9-oxa-4-aza-5(2,1)-benzo[d]imidazola-2(2,4)-pyridina-1(4,5)-pyrazola-7(1,3)-cyclopentanacyclononaphane-5^6-yl)piperazin-1-yl)piperidin-1-yl)phenyl)piperidine-2,6-dione], in test [1], the “Imax (%)” value stood at 98.39% and the IC50 stood at 11.5 nM. Moreover, in test [2], the “Imax (%)” value was 103.01% and it took 3.94 nM to reach half-maximal inhibition (IC50). In addition, in test [3], the DC50 came to 4.28 nM and the maximal degradation (Dmax) stood at 95.2%. In test [4], this compound came in with a DC50 of 4.31 nM and a maximal degradation (Dmax) of 91.4%.

Regarding `Cc1cc2cc(n1)-c1c(C)nn(C)c1OC[C@H]1CCC(C1)CN1/C(=N/C2=O)Nc2ccc(N3CCN(C4CCN(c5ccc(C6CCC(=O)NC6=O)nc5C)CC4)CC3)cc21` (some centres unmarked) [Example 72, 3-(6-methyl-5-(4-(4-((7^1R,7^3S,E)-1^1,1^3,2^6-trimethyl-3-oxo-5^2,5^3-dihydro-1^1H,5^1H-9-oxa-4-aza-5(2,1)-benzo[d]imidazola-2(2,4)-pyridina-1(4,5)-pyrazola-7(1,3)-cyclopentanacyclononaphane-5^6-yl)piperazin-1-yl)piperidin-1-yl)pyridin-2-yl)piperidine-2,6-dione], the “Imax (%)” value is recorded as 92.8% in test [1] and 101.7% in test [2]. Further, the IC50 in test [1] came to 3.2 nM; in test [2], 0.6 nM. Besides, the DC50 was found to be 0.4 nM in test [3] and 0.64 nM in test [4]. Further, the values for the Dmax in test [3] and in test [4] were 91.6% and 76.6%, respectively.

In the case of `COC[C@@H]1CN(c2cc3c(cc2F)N/C2=N\C(=O)c4cc(C)nc(c4)-c4cnn(C)c4OC[C@H]4CCC(C4)CN23)CCN1C1CCN(c2cc(F)c([C@H]3CCC(=O)NC3=O)c(F)c2)CC1` [Example 87, (R)-3-(2,6-difluoro-4-(4-((S)-4-((7^1R,7^3S,E)-5^5-fluoro-1^1,2^6-dimethyl-3-oxo-5^2,5^3-dihydro-1^1H,5^1H-9-oxa-4-aza-5(2,1)-benzo[d]imidazola-2(2,4)-pyridina-1(4,5)-pyrazola-7(1,3)-cyclopentanacyclononaphane-5^6-yl)-2-(methoxymethyl)piperazin-1-yl)piperidin-1-yl)phenyl)piperidine-2,6-dione], in test [1], the “Imax (%)” value was found to be 96.2% and the concentration for half-maximal inhibition (IC50) worked out at 13.8 nM. Moreover, in test [2], the “Imax (%)” value is 100.3% and the IC50 worked out at 1.5 nM. In test [3], this compound yielded a DC50 of 2.86 nM and a Dmax of 64.1%. In test [4], this compound came in with a DC50 of 8.71 nM and a Dmax of 70.8%.

On to `Cc1cc2cc(n1)-c1cnn(C)c1OC[C@H]1CCC(C1)CN1/C(=N/C2=O)Nc2ccc(N3CCN(C4(CO)CCN(c5ccc(C6CCC(=O)NC6=O)nc5C)CC4)CC3)cc21` (some centres unmarked) [Example 114, 3-(5-(4-(4-((7^1R,7^3S,E)-1^1,2^6-dimethyl-3-oxo-5^2,5^3-dihydro-1^1H,5^1H-9-oxa-4-aza-5(2,1)-benzo[d]imidazola-2(2,4)-pyridina-1(4,5)-pyrazola-7(1,3)-cyclopentanacyclononaphane-5^6-yl)piperazin-1-yl)-4-(hydroxymethyl)piperidin-1-yl)-6-methylpyridin-2-yl)piperidine-2,6-dione], for which the “Imax (%)” value in test [1] stood at 98.4%; in test [2], 100.5%. In addition, the concentration for half-maximal inhibition (IC50) in test [1] came out at 7.3 nM; in test [2], 0.4 nM. The half-maximal degradation concentration (DC50) was determined as 3.11 nM in test [3] and 1.09 nM in test [4]. In addition, the Dmax in test [3] was determined as 75.7%; in test [4] it was 82%.

`Cc1cc2cc(n1)-c1cnn(C)c1OC[C@H]1CCC(C1)CN1/C(=N/C2=O)Nc2ccc(N3CCN(CCc4cc(F)c(C5CCC(=O)NC5=O)nc4C)CC3)cc21` (some centres unmarked) [Example 78, 3-(5-(2-(4-((7^1R,7^3S,E)-1^1,2^6-dimethyl-3-oxo-5^2,5^3-dihydro-1^1H,5^1H-9-oxa-4-aza-5(2,1)-benzo[d]imidazola-2(2,4)-pyridina-1(4,5)-pyrazola-7(1,3)-cyclopentanacyclononaphane-5^6-yl)piperazin-1-yl)ethyl)-3-fluoro-6-methylpyridin-2-yl)piperidine-2,6-dione]: in test [1], the “Imax (%)” value is recorded as 92.5% and the midpoint of inhibition, the IC50, lay at 16.9 nM. In test [2], the “Imax (%)” value stood at 100.6% and the midpoint of inhibition, the IC50, lay at 1.2 nM. In test [3], the half-maximal degradation concentration (DC50) was found to be 3.68 nM and the Dmax is 87.8%. In test [4], this compound came in with a half-maximal degradation concentration (DC50) of 4.18 nM and a Dmax of 65.5%.

For `COC[C@H]1CN(c2ccc3c(c2)N2C[C@@H]4CC[C@H](COc5c(c(C)nn5C)-c5cc(cc(C)n5)C(=O)/N=C/2N3)C4)CCN1C1CCN(c2ccc(NC3CCC(=O)NC3=O)cc2C)CC1` (stereo partly drawn) [Example 207, 3-((4-(4-((R)-2-(methoxymethyl)-4-((7R,7^3S,E)-1^1,1^3,2^6-trimethyl-3-oxo-5^2,5^3-dihydro-1^1H,5^1H-9-oxa-4-aza-5(2,1)-benzo[d]imidazola-2(2,4)-pyridina-1(4,5)-pyrazola-7(1,3)-cyclopentanacyclononaphane-5^6-yl)piperazin-1-yl)piperidin-1-yl)-3-methylphenyl)amino)piperidine-2,6-dione], in test [1], the “Imax (%)” value amounted to 88.5% and the half-maximal inhibitory concentration (IC50) worked out at 1.5 nM. Besides, in test [2], the “Imax (%)” value was determined as 100.67% and the concentration for half-maximal inhibition (IC50) is 1.4 nM. In test [3], this compound returned a half-maximal degradation concentration (DC50) of 1.04 nM and a maximal degradation (Dmax) of 91.9%. Moreover, in test [4], the 50% degradation concentration (DC50) amounted to 1.7 nM and the greatest degradation seen (Dmax) is 87.5%.
